Structures can show the parent of a compound that is named as a salt. Where two headings read alike, the source gives them in different places.
Tests used:
[1] = Solubility in dilute hydrochloric acid (Test Example 3); format: physicochemical; conditions: for The concentration (mg/g) of 5-(4-{[6-(4-amino-3,5-dimethylphenoxy)-1-methyl-1-H-benzimidazol-2-yl]methoxy}benzyl)-1,3-thiazolidine-2,4-dione in dilute hydrochloric acid: dilute hydrochloric acid 9.6 mg/g (pH about 0.7), 25° C., 500 mg in 5 mL, sampled after 6 minutes; for Concentration in dilute hydrochloric acid compared with the other crystalline forms: comparison of Table 7
Procedure: The concentration was measured under the test conditions below.
The concentration is calculated from the following formula.

[2] = system: human stomach cancer cells, human breast cancer cells, small cell lung cancer, pancreas cancer cells, prostate cancer cells, kidney cancer cells …; conditions: medulloblastoma, sarcoma cells, multiple myeloma; cited from earlier work
[3] = system: human leukemia cells; conditions: cited from earlier work
[4] = system: human colon cancer cell lines; conditions: against human colon cancer cell lines; cited from earlier work
[5] = system: cancer cells; conditions: in combination with an epidermal growth factor receptor (EGFR) inhibitor; cited from earlier work
[6] = system: human non-small-cell lung cancer; conditions: cited from earlier work
[7] = system: cancer cells; conditions: in combination with a VEGFR inhibitor or a Raf kinase inhibitor; cited from earlier work
[8] = system: human kidney cancer; conditions: cited from earlier work
[9] = biological target: T1, peroxisome proliferator-activated receptor (PPAR) γ (Homo sapiens, UniProt P37231); conditions: as disclosed in Patent Documents 1-5; cited from earlier work
T1 sequence (P37231 1-505): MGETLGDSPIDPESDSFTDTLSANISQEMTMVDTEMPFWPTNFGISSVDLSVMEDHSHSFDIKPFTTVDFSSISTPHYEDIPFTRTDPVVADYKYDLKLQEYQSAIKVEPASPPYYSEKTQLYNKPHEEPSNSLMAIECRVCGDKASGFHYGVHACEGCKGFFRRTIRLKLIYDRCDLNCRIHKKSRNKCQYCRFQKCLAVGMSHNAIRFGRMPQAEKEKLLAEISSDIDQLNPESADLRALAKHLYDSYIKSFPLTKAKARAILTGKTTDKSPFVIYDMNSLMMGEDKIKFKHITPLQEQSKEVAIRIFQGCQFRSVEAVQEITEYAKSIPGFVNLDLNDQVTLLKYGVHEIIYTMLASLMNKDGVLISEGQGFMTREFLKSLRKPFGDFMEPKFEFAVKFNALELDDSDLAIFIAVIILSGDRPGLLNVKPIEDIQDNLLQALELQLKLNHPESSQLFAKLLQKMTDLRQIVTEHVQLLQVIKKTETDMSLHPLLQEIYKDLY

[10] = in vivo; cited from earlier work

SMILES: Cc1cc(Oc2ccc3nc(COc4ccc(CC5SC(=O)NC5=O)cc4)n(C)c3c2)cc(C)c1N (stereo not shown) [Crystalline form A manufactured according to Example 4] [5-(4-{[6-(4-amino-3,5-dimethylphenoxy)-1-methyl-1-H-benzimidazol-2-yl]methoxy}benzyl)-1,3-thiazolidine-2,4-dione dihydrochloride monohydrate]
- The concentration (mg/g) of 5-(4-{[6-(4-amino-3,5-dimethylphenoxy)-1-methyl-1-H-benzimidazol-2-yl]methoxy}benzyl)-1,3-thiazolidine-2,4-dione in dilute hydrochloric acid ([1]; dihydrochloride monohydrate): 0.325 mg/g
- Concentration in dilute hydrochloric acid compared with the other crystalline forms ([1]; dihydrochloride monohydrate): highest concentration among the dihydrochloride monohydrate crystalline forms

SMILES: Cc1cc(Oc2ccc3nc(COc4ccc(CC5SC(=O)NC5=O)cc4)n(C)c3c2)cc(C)c1N (stereo not shown) [5-(4-{[6-(4-amino-3,5-dimethylphenoxy)-1-methyl-1-H-benzimidazol-2-yl]methoxy}benzyl)-1,3-thiazolidine-2,4-dione monohydrate]
- The concentration (mg/g) of 5-(4-{[6-(4-amino-3,5-dimethylphenoxy)-1-methyl-1-H-benzimidazol-2-yl]methoxy}benzyl)-1,3-thiazolidine-2,4-dione in dilute hydrochloric acid ([1]; monohydrate): 0.579 mg/g
- Concentration in dilute hydrochloric acid compared with the other crystalline forms ([1]; listed as free-form crystalline form, monohydrate): higher concentration than all the dihydrochloride monohydrate crystalline forms

SMILES: Cc1cc(Oc2ccc3nc(COc4ccc(CC5SC(=O)NC5=O)cc4)n(C)c3c2)cc(C)c1N (stereo not shown) [dihydrochloride of Compound (I), 5-(4-{[6-(4-amino-3,5-dimethylphenoxy)-1-methyl-1-H-benzimidazol-2-yl]methoxy}benzyl)-1,3-thiazolidine-2,4-dione dihydrochloride]
- Activity to inhibit the growth of cancer cells [2]: significant activity to inhibit the growth
- Growth inhibition of human leukemia cells [3]: significantly inhibits the growth-inhibiting activity
- Antitumor activity in vivo [4]: significant antitumor activity in vivo
- Activity to inhibit the growth of cancer cells in combination [5]: synergistic activity to inhibit the growth of cancer cells
- Antitumor activity ([6]; alone): has antitumor activity
- Antitumor activity in combination ([6]; in combination with an EGFR inhibitor): enhanced antitumor activity
- Activity to inhibit the growth of cancer cells in combination [7]: synergistic activity to inhibit the growth of cancer cells
- Antitumor activity ([8]; alone): has antitumor activity
- Antitumor activity in combination ([8]; in combination with a VEGFR inhibitor or a Raf kinase inhibitor): enhanced antitumor activity

SMILES: Cc1cc(Oc2ccc3nc(COc4ccc(CC5SC(=O)NC5=O)cc4)n(C)c3c2)cc(C)c1N (stereo not shown) [Crystalline form manufactured according to Example (2-1)] [5-(4-{[6-(4-amino-3,5-dimethylphenoxy)-1-methyl-1-H-benzimidazol-2-yl]methoxy}benzyl)-1,3-thiazolidine-2,4-dione dihydrochloride monohydrate]
- The concentration (mg/g) of 5-(4-{[6-(4-amino-3,5-dimethylphenoxy)-1-methyl-1-H-benzimidazol-2-yl]methoxy}benzyl)-1,3-thiazolidine-2,4-dione in dilute hydrochloric acid ([1]; dihydrochloride monohydrate): 0.276 mg/g

SMILES: Cc1cc(Oc2ccc3nc(COc4ccc(CC5SC(=O)NC5=O)cc4)n(C)c3c2)cc(C)c1N (stereo not shown) [Compound (I), 5-(4-{[6-(4-amino-3,5-dimethylphenoxy)-1-methyl-1-H-benzimidazol-2-yl]methoxy}benzyl)-1,3-thiazolidine-2,4-dione]
- Ability to activate PPAR γ [9]: significant ability to activate
- Activity to ameliorate insulin resistance and to reduce blood sugar [10]: significant activity to ameliorate insulin resistance and to reduce blood sugar

Source: patent publication US20110124692A1, “CRYSTALLINE FORMS OF THIAZOLIDINEDIONE COMPOUND AND ITS MANUFACTURING METHOD” (DAIICHI SANKYO COMPANY, LIMITED, priority 2008, published 2011)
